According to publication PMC8330742, “New benzothieno[2,3-c]pyridines as non-steroidal CYP17 inhibitors: design, synthesis, anticancer screening, apoptosis induction, and in silico ADME profile studies” (Journal of Enzyme Inhibition and Medicinal Chemistry, 2021):

Columns and labels:
CCRF-CEM = assay: NCI-60 SRB screen; assay type: cell-based; conditions: Homo sapiens, single dose 10^−5 M, Leukaemia, read-out: Growth inhibition (%)
HL-60(TB) = assay: NCI-60 SRB screen; assay type: cell-based, human; conditions: Homo sapiens; single dose 10^−5 M; HL-60(TB), Leukaemia; read-out: Growth inhibition (%)
K-562 = assay: NCI-60 SRB screen; assay type: cell-based, human; conditions: Homo sapiens, K562; single dose 10^−5 M; K-562, Leukaemia; read-out: Growth inhibition (%)
MOLT-4 = assay: NCI-60 SRB screen; assay type: cell-based; conditions: Homo sapiens; single dose 10^−5 M; MOLT-4, Leukaemia; read-out: Growth inhibition (%)
A549/ATCC = assay: NCI-60 SRB screen; assay type: cell-based, human; conditions: Homo sapiens, single dose 10^−5 M, Non-small cell lung carcinoma, read-out: Growth inhibition (%)
EKVX = assay: NCI-60 SRB screen; assay type: cell-based, human; conditions: Homo sapiens, single dose 10^−5 M, Non-small cell lung carcinoma, read-out: Growth inhibition (%)
HOP-62 = assay: NCI-60 SRB screen; assay type: cell-based, human; conditions: Homo sapiens; single dose 10^−5 M; HOP-62, Non-small cell lung carcinoma; read-out: Growth inhibition (%)
HOP-92 = assay: NCI-60 SRB screen; assay type: cell-based, human; conditions: Homo sapiens; single dose 10^−5 M; HOP-92, Non-small cell lung carcinoma; read-out: Growth inhibition (%)
NCI-H226 = assay: NCI-60 SRB screen; assay type: cell-based, human; conditions: Homo sapiens; single dose 10^−5 M; NCI-H226, Non-small cell lung carcinoma; read-out: Growth inhibition (%)
NCI-H23 = assay: NCI-60 SRB screen; assay type: cell-based, human; conditions: Homo sapiens; single dose 10^−5 M; NCI-H23, Non-small cell lung carcinoma; read-out: Growth inhibition (%)
NCI-H322M = assay: NCI-60 SRB screen; assay type: cell-based, human; conditions: Homo sapiens, single dose 10^−5 M, Non-small cell lung carcinoma, read-out: Growth inhibition (%)
NCI-H460 = assay: NCI-60 SRB screen; assay type: cell-based, human; conditions: Homo sapiens; single dose 10^−5 M; NCI-H460, Non-small cell lung carcinoma; read-out: Growth inhibition (%)
NCI-H522 = assay: NCI-60 SRB screen; assay type: cell-based, human; conditions: Homo sapiens; single dose 10^−5 M; NCI-H522, Non-small cell lung carcinoma; read-out: Growth inhibition (%)
COLO 205 = assay: NCI-60 SRB screen; assay type: cell-based, human; conditions: Homo sapiens; single dose 10^−5 M; COLO 205, Colon cancer; read-out: Growth inhibition (%)
HCC-2998 = assay: NCI-60 SRB screen; assay type: cell-based, human; conditions: Homo sapiens; single dose 10^−5 M; HCC-2998, Colon cancer; read-out: Growth inhibition (%)
HCT-116 = assay: NCI-60 SRB screen; assay type: cell-based, human; conditions: Homo sapiens; single dose 10^−5 M; HCT-116, Colon cancer; read-out: Growth inhibition (%)
HCT-15 = assay: NCI-60 SRB screen; assay type: cell-based, human; conditions: Homo sapiens; single dose 10^−5 M; HCT-15, Colon cancer; read-out: Growth inhibition (%)
HT-29 = assay: NCI-60 SRB screen; assay type: cell-based; conditions: Homo sapiens; single dose 10^−5 M; HT-29, Colon cancer; read-out: Growth inhibition (%)
KM12 = assay: NCI-60 SRB screen; assay type: cell-based, human; conditions: Homo sapiens; single dose 10^−5 M; KM12, Colon cancer; read-out: Growth inhibition (%)
SW-620 = assay: NCI-60 SRB screen; assay type: cell-based; conditions: Homo sapiens; single dose 10^−5 M; SW-620, Colon cancer; read-out: Growth inhibition (%)
SF-268 = assay: NCI-60 SRB screen; assay type: cell-based, human; conditions: Homo sapiens; single dose 10^−5 M; SF-268, CNS cancer; read-out: Growth inhibition (%)
SF-295 = assay: NCI-60 SRB screen; assay type: cell-based, human; conditions: Homo sapiens; single dose 10^−5 M; SF-295, CNS cancer; read-out: Growth inhibition (%)
LOX IMVI = assay: NCI-60 SRB screen; assay type: cell-based, human; conditions: Homo sapiens, single dose 10^−5 M, Melanoma, read-out: Growth inhibition (%)
MALME-3M = assay: NCI-60 SRB screen; assay type: cell-based, human; conditions: Homo sapiens, single dose 10^−5 M, Melanoma, read-out: Growth inhibition (%)
M14 = assay: NCI-60 SRB screen; assay type: cell-based, human; conditions: Homo sapiens; single dose 10^−5 M; M14, Melanoma; read-out: Growth inhibition (%)
SK-MEL-2 = assay: NCI-60 SRB screen; assay type: cell-based, human; conditions: Homo sapiens; single dose 10^−5 M; SK-MEL-2, Melanoma; read-out: Growth inhibition (%)
SK-MEL-28 = assay: NCI-60 SRB screen; assay type: cell-based; conditions: Homo sapiens; single dose 10^−5 M; SK-MEL-28, Melanoma; read-out: Growth inhibition (%)
SK-MEL-5 = assay: NCI-60 SRB screen; assay type: cell-based, human; conditions: Homo sapiens; single dose 10^−5 M; SK-MEL-5, Melanoma; read-out: Growth inhibition (%)
UACC-257 = assay: NCI-60 SRB screen; assay type: cell-based, human; conditions: Homo sapiens; single dose 10^−5 M; UACC-257, Melanoma; read-out: Growth inhibition (%)
UACC-62 = assay: NCI-60 SRB screen; assay type: cell-based, human; conditions: Homo sapiens; single dose 10^−5 M; UACC-62, Melanoma; read-out: Growth inhibition (%)
IGROV1 = assay: NCI-60 SRB screen; assay type: cell-based, human; conditions: Homo sapiens, IGROV-1; single dose 10^−5 M; IGROV1, Ovarian cancer; read-out: Growth inhibition (%)
OVCAR-3 = assay: NCI-60 SRB screen; assay type: cell-based, human; conditions: Homo sapiens; single dose 10^−5 M; OVCAR-3, Ovarian cancer; read-out: Growth inhibition (%)
OVCAR-4 = assay: NCI-60 SRB screen; assay type: cell-based, human; conditions: Homo sapiens; single dose 10^−5 M; OVCAR-4, Ovarian cancer; read-out: Growth inhibition (%)
OVCAR-8 = assay: NCI-60 SRB screen; assay type: cell-based, human; conditions: Homo sapiens; single dose 10^−5 M; OVCAR-8, Ovarian cancer; read-out: Growth inhibition (%)
NCI/ADR-RES = assay: NCI-60 SRB screen; assay type: cell-based, human; conditions: Homo sapiens, single dose 10^−5 M, Ovarian cancer, read-out: Growth inhibition (%)
SK-OV-3 = assay: NCI-60 SRB screen; assay type: cell-based, human; conditions: Homo sapiens; single dose 10^−5 M; SK-OV-3, Ovarian cancer; read-out: Growth inhibition (%)
786-0 = assay: NCI-60 SRB screen; assay type: cell-based; conditions: Homo sapiens; single dose 10^−5 M; 786-0, Renal cancer; read-out: Growth inhibition (%)
ACHN = assay: NCI-60 SRB screen; assay type: cell-based; conditions: Homo sapiens, single dose 10^−5 M, Renal cancer, read-out: Growth inhibition (%)
CAKI-1 = assay: NCI-60 SRB screen; assay type: cell-based, human; conditions: Homo sapiens; single dose 10^−5 M; CAKI-1, Renal cancer; read-out: Growth inhibition (%)
RXF 393 = assay: NCI-60 SRB screen; assay type: cell-based, human; conditions: Homo sapiens; single dose 10^−5 M; RXF 393, Renal cancer; read-out: Growth inhibition (%)
SN12C = assay: NCI-60 SRB screen; assay type: cell-based, human; conditions: Homo sapiens, SN12C; single dose 10^−5 M; SN 12 C, Renal cancer; read-out: Growth inhibition (%)
TK-10 = assay: NCI-60 SRB screen; assay type: cell-based, human; conditions: Homo sapiens; single dose 10^−5 M; TK-10, Renal cancer; read-out: Growth inhibition (%)
UO-31 = assay: NCI-60 SRB screen; assay type: cell-based, human; conditions: Homo sapiens; single dose 10^−5 M; UO-31, Renal cancer; read-out: Growth inhibition (%)
[1] = system: panel of 60 cancer cell lines; assay: NCI-60 SRB screen, mean or range over the panel; assay type: cell-based, human; conditions: Homo sapiens; mean over the cell lines; single dose 10^−5 M; read-out: Mean growth inhibition (%)

O=[N+]([O-])c1cccc(C2NC3=C(Nc4ccccc4N3)c3c2sc2c(F)cccc32)c1 (stereo not shown) [Compound 9, 9-Fluoro-7-(3-nitrophenyl)-5,6,7,13-tetrahydro[1]benzothieno[3′,2′:4,5]-pyrido[2,3-b]quinoxaline] was tested, and the inhibition at 10 µM (CCRF-CEM) was -1.14%, the inhibition at 10 µM (HL-60(TB)) was -3.65% and the inhibition at 10 µM (K-562) was 16.6%. It also gave an inhibition at 10 µM (MOLT-4) of -1.99%, an inhibition at 10 µM (A549/ATCC) of -2.98% and an inhibition at 10 µM (EKVX) of 4.82%. For the same compound, the inhibition at 10 µM (HOP-62) was 9.45%, the inhibition at 10 µM (HOP-92) was -1.53% and the inhibition at 10 µM (NCI-H226) was 10.4%. It also gave an inhibition at 10 µM (NCI-H23) of 0.22%, an inhibition at 10 µM (NCI-H322M) of -1.56% and an inhibition at 10 µM (NCI-H460) of 1.16%. It also gave an inhibition at 10 µM (NCI-H522) of 4.63%, an inhibition at 10 µM (COLO 205) of -17.1% and an inhibition at 10 µM (HCC-2998) of -17.5%. For the same compound, the inhibition at 10 µM (HCT-116) was -1.05%, the inhibition at 10 µM (HCT-15) was -4.08% and the inhibition at 10 µM (HT-29) was -5.27%. For the same compound, the inhibition at 10 µM (KM12) was -0.46%, the inhibition at 10 µM (SW-620) was 2% and the inhibition at 10 µM (SF-268) was 7.06%. It also gave an inhibition at 10 µM (SF-295) of -7.1%, an inhibition at 10 µM (LOX IMVI) of 3.13% and an inhibition at 10 µM (MALME-3M) of -7.56%. The inhibition at 10 µM (M14) was 1.33%, the inhibition at 10 µM (SK-MEL-2) was 3.87% and the inhibition at 10 µM (SK-MEL-28) was -7.98%. For the same compound, the inhibition at 10 µM (SK-MEL-5) was -22%, the inhibition at 10 µM (UACC-257) was -15.2% and the inhibition at 10 µM (UACC-62) was 11.5%. For the same compound, the inhibition at 10 µM (IGROV1) was 24.2%, the inhibition at 10 µM (OVCAR-3) was -3.93% and the inhibition at 10 µM (OVCAR-4) was -2.74%. For the same compound, the inhibition at 10 µM (OVCAR-8) was -3.4%, the inhibition at 10 µM (NCI/ADR-RES) was -6.5% and the inhibition at 10 µM (SK-OV-3) was -1.7%. It also gave an inhibition at 10 µM (786-0) of -10.3%, an inhibition at 10 µM (ACHN) of 15.5% and an inhibition at 10 µM (CAKI-1) of 28.3%. It also gave an inhibition at 10 µM (RXF 393) of -15.3%, an inhibition at 10 µM (SN12C) of 1.71% and an inhibition at 10 µM (TK-10) of -54.7%. The inhibition at 10 µM (UO-31) was 36.1% and the inhibition at 10 µM [1] was 7.87%.

Work on N#CC1=C(Nc2ccccc2F)NC(c2cccc([N+](=O)[O-])c2)c2sc3c(F)cccc3c21 (stereo not shown) [Compound 10, 4-Cyano-8-fluoro-3((2-fluorophenyl)amino)-1–(3-nitrophenyl)-1,2-dihydro[1]benzothieno[2,3-c]pyridine] yielded an inhibition at 10 µM (CCRF-CEM) of 2.96%, an inhibition at 10 µM (HL-60(TB)) of -13.1% and an inhibition at 10 µM (K-562) of 2.72%. The inhibition at 10 µM (MOLT-4) was 6.48%, the inhibition at 10 µM (A549/ATCC) was -7.45% and the inhibition at 10 µM (EKVX) was 9.27%. It also gave an inhibition at 10 µM (HOP-62) of 8.27%, an inhibition at 10 µM (HOP-92) of 9.6% and an inhibition at 10 µM (NCI-H226) of 12.8%. The inhibition at 10 µM (NCI-H23) was -1.96%, the inhibition at 10 µM (NCI-H322M) was -0.11% and the inhibition at 10 µM (NCI-H460) was -1.1%. For the same compound, the inhibition at 10 µM (NCI-H522) was -2.13%, the inhibition at 10 µM (COLO 205) was -13.3% and the inhibition at 10 µM (HCC-2998) was -20.3%. For the same compound, the inhibition at 10 µM (HCT-116) was 3.44%, the inhibition at 10 µM (HCT-15) was -5.46% and the inhibition at 10 µM (HT-29) was -14.2%. The inhibition at 10 µM (KM12) was 0.14%, the inhibition at 10 µM (SW-620) was 2.45% and the inhibition at 10 µM (SF-268) was 4.7%. The inhibition at 10 µM (SF-295) was -4.19%, the inhibition at 10 µM (LOX IMVI) was 3.26% and the inhibition at 10 µM (MALME-3M) was -15.1%. It also gave an inhibition at 10 µM (M14) of 1.68%, an inhibition at 10 µM (SK-MEL-2) of 0.67% and an inhibition at 10 µM (SK-MEL-28) of -11%. The inhibition at 10 µM (SK-MEL-5) was -19.6%, the inhibition at 10 µM (UACC-257) was -23.2% and the inhibition at 10 µM (UACC-62) was 6.75%. For the same compound, the inhibition at 10 µM (IGROV1) was 16.1%, the inhibition at 10 µM (OVCAR-3) was -1.64% and the inhibition at 10 µM (OVCAR-4) was -3.9%. The inhibition at 10 µM (OVCAR-8) was -6.58%, the inhibition at 10 µM (NCI/ADR-RES) was -8.27% and the inhibition at 10 µM (SK-OV-3) was 10.1%. The inhibition at 10 µM (786-0) was -12.3%, the inhibition at 10 µM (ACHN) was 9.97% and the inhibition at 10 µM (CAKI-1) was 21.1%. It also gave an inhibition at 10 µM (RXF 393) of -5.32%, an inhibition at 10 µM (SN12C) of 0.49% and an inhibition at 10 µM (TK-10) of -55.4%. The inhibition at 10 µM (UO-31) was 31.2% and the inhibition at 10 µM [1] was -0.095%.
